Measurements taken from the CheMixHub viscosity set.

Experiment: xn = mol fraction of the nth substance listed

BrC(Br)Br + C=Cc1ccccc1
viscosity [mPa·s], 101.33 kPa
Conditions | x2 = 0.1005 | x2 = 0.2006 | x2 = 0.2981 | x2 = 0.3985 | x2 = 0.506 | x2 = 0.6032 | x2 = 0.7008 | x2 = 0.7712 | x2 = 0.8948
298.15 K | 1.834 | 1.697 | 1.562 | 1.426 | 1.284 | 1.163 | 1.054 | 0.9849 | 0.8704
303.15 K | 1.714 | 1.586 | 1.462 | 1.332 | 1.198 | 1.084 | 0.9817 | 0.9179 | 0.8129
308.15 K | 1.603 | 1.481 | 1.361 | 1.24 | 1.117 | 1.01 | 0.9176 | 0.8595 | 0.762

CCCCCCCCO + CC1COC(=O)O1
298.15 K, 101 kPa
Conditions | viscosity [mPa·s]
x2 = 0.0305 | 5.992
x2 = 0.0991 | 5.607
x2 = 0.1708 | 5.253
x2 = 0.2441 | 4.915
x2 = 0.3107 | 4.627
x2 = 0.4055 | 4.245
x2 = 0.4882 | 3.938
x2 = 0.5632 | 3.679
x2 = 0.6277 | 3.469
x2 = 0.7091 | 3.222
x2 = 0.7824 | 3.015
x2 = 0.8415 | 2.857
x2 = 0.9046 | 2.698
x2 = 0.971 | 2.54

CC(=O)c1ccc(Cl)cc1 + CC#N
308.15 K, 101 kPa
Conditions | viscosity [mPa·s]
x1 = 0.0513 | 0.3576
x1 = 0.092 | 0.4065
x1 = 0.1488 | 0.479
x1 = 0.2128 | 0.5704
x1 = 0.2863 | 0.6742
x1 = 0.3792 | 0.8301
x1 = 0.4876 | 1.039
x1 = 0.6196 | 1.31
x1 = 0.7847 | 1.716
x1 = 0.865 | 1.96
x1 = 0.9536 | 2.224

CCCCCCCCO + CC#N
viscosity [mPa·s], 101 kPa
Conditions | 298.15 K | 303.15 K | 308.15 K
x2 = 0.1277 | 5.028 | 4.029 | 3.493
x2 = 0.2608 | 3.533 | 3.09 | 2.688
x2 = 0.3381 | 2.848 | 2.53 | 2.203
x2 = 0.4447 | 2.086 | 1.862 | 1.638
x2 = 0.5793 | 1.427 | 1.282 | 1.151
x2 = 0.68 | 1.028 | 0.927 | 0.84
x2 = 0.7638 | 0.77 | 0.701 | 0.647
x2 = 0.8283 | 0.695 | 0.562 | 0.523
x2 = 0.8825 | 0.502 | 0.472 | 0.446
x2 = 0.9273 | 0.435 | 0.414 | 0.391
x2 = 0.967 | 0.39 | 0.364 | 0.346

C=Cc1ccccc1 + CC(=O)N(C)C
viscosity [mPa·s], 101.33 kPa
Conditions | x1 = 0.109 | x1 = 0.1994 | x1 = 0.2958 | x1 = 0.4002 | x1 = 0.5004 | x1 = 0.6012 | x1 = 0.7027 | x1 = 0.8005 | x1 = 0.9015
298.15 K | 0.938 | 0.936 | 0.937 | 0.929 | 0.921 | 0.903 | 0.881 | 0.851 | 0.808
303.15 K | 0.874 | 0.873 | 0.872 | 0.863 | 0.857 | 0.841 | 0.821 | 0.795 | 0.753
308.15 K | 0.817 | 0.818 | 0.815 | 0.807 | 0.8 | 0.785 | 0.766 | 0.742 | 0.7

CC(C)(C)N + CC(=O)OCCC(C)C
303.15 K, 101 kPa
Conditions | viscosity [mPa·s]
x1 = 0.1524 | 0.6892
x1 = 0.239 | 0.6687
x1 = 0.3353 | 0.6526
x1 = 0.4584 | 0.6341
x1 = 0.5807 | 0.5993
x1 = 0.6423 | 0.5804
x1 = 0.7298 | 0.5464
x1 = 0.8649 | 0.4955

BrC(Br)Br + CC(C)=O
298.15 K, 101 kPa
Conditions | viscosity [mPa·s]
x1 = 0.0969 | 0.407
x1 = 0.2014 | 0.529
x1 = 0.332 | 0.696
x1 = 0.428 | 0.847
x1 = 0.4952 | 0.954
x1 = 0.5974 | 1.131
x1 = 0.6766 | 1.268
x1 = 0.7997 | 1.503
x1 = 0.9166 | 1.73

BrC(Br)Br + CC(C)CCO
viscosity [mPa·s], 101.33 kPa
Conditions | x1 = 0.099 | x1 = 0.203 | x1 = 0.299 | x1 = 0.422 | x1 = 0.498 | x1 = 0.599 | x1 = 0.702 | x1 = 0.803 | x1 = 0.9
298.15 K | 3.419 | 3.063 | 2.77 | 2.415 | 2.265 | 2.111 | 1.957 | 1.888 | 1.873
303.15 K | 2.937 | 2.643 | 2.384 | 2.145 | 2.025 | 1.909 | 1.795 | 1.739 | 1.737
308.15 K | 2.527 | 2.306 | 2.111 | 1.905 | 1.815 | 1.729 | 1.647 | 1.61 | 1.605

BrC(Br)Br + CC(C)CO
viscosity [mPa·s], 101.3 kPa
Conditions | x1 = 0.099 | x1 = 0.197 | x1 = 0.3 | x1 = 0.395 | x1 = 0.498 | x1 = 0.597 | x1 = 0.701 | x1 = 0.798 | x1 = 0.901
298.15 K | 2.98 | 2.604 | 2.336 | 2.134 | 2.017 | 1.905 | 1.849 | 1.815 | 1.823
303.15 K | 2.544 | 2.272 | 2.045 | 1.901 | 1.808 | 1.732 | 1.693 | 1.679 | 1.699
308.15 K | 2.193 | 2.011 | 1.803 | 1.687 | 1.633 | 1.579 | 1.559 | 1.558 | 1.591

BrC(Br)Br + CCC(C)=O
viscosity [mPa·s]
Conditions | x1 = 0.1474 | x1 = 0.1586 | x1 = 0.3005 | x1 = 0.3052 | x1 = 0.5009 | x1 = 0.5019 | x1 = 0.6499 | x1 = 0.6501 | x1 = 0.8432 | x1 = 0.8502
298 K, 101.3 kPa | – | 0.583 | – | 0.768 | 1.072 | – | – | 1.318 | 1.626 | –
318 K, 101.33 kPa | 0.4678 | – | 0.6228 | – | – | 0.8523 | 1.038 | – | – | 1.298

CCCCCCCCO + CCC(C)=O
viscosity [mPa·s], 100 kPa
Conditions | x2 = 0.0822 | x2 = 0.1611 | x2 = 0.2403 | x2 = 0.3498 | x2 = 0.4409 | x2 = 0.5588 | x2 = 0.6462 | x2 = 0.7398 | x2 = 0.8503 | x2 = 0.9398
293.15 K | 7.1 | 5.43 | 4.3 | 3.18 | 2.46 | 1.7 | 1.26 | 0.96 | 0.68 | 0.49
303.15 K | 4.93 | 3.97 | 3.09 | 2.32 | 1.7 | 1.03 | 0.75 | 0.62 | 0.49 | 0.42
313.15 K | 3.59 | 2.87 | 2.28 | 1.69 | 1.32 | 0.98 | 0.78 | 0.62 | 0.49 | 0.39
323.15 K | 2.74 | 2.22 | 1.82 | 1.38 | 1.1 | 0.83 | 0.67 | 0.54 | 0.43 | 0.35
